Source: ChEMBL document CHEMBL3396964, “SAH derived potent and selective EZH2 inhibitors” (Bioorg Med Chem Lett, 2015)
pIC50: −log10 of the molar value. The source made the active and inactive calls. No cut-off for these calls is given here.

Key:
[1] = Permeability across MDCK2 cells; assay type: ADME, cell-based, Canis lupus familiaris, MDCK-II; details: dog, MDCK; read-out: permeability
[2] = target: Histone-lysine N-methyltransferase EZH2 (Homo sapiens) (UniProt Q15910); test: Inhibition of EZH2 (unknown origin) at 100 uM by cell-based assay
Chain of Histone-lysine N-methyltransferase EZH2 (Homo sapiens) (Q15910 whole entry, looked up): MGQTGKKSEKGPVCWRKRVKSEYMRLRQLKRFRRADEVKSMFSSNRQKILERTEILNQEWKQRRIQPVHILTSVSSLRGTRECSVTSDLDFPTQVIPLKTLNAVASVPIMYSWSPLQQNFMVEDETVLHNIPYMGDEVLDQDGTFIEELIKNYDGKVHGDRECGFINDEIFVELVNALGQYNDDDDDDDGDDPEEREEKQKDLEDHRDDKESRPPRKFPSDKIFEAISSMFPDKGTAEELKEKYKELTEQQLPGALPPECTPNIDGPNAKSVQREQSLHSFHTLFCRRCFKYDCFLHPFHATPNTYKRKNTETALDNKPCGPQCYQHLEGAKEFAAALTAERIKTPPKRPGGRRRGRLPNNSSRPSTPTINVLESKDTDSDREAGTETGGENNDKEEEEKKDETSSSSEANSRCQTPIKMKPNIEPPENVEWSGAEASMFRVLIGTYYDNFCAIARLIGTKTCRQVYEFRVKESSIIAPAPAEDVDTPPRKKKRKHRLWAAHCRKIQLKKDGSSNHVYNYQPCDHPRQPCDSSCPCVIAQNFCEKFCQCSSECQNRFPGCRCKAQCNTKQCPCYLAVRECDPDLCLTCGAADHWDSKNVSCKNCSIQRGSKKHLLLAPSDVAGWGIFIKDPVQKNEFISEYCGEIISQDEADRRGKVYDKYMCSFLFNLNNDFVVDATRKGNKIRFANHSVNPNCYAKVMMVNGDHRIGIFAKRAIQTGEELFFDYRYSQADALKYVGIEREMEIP

[3] = target: Histone-lysine N-methyltransferase KMT5C (Homo sapiens, UniProt Q86Y97); test: Inhibition of SUV420H2 (unknown origin) by HMT assay
Chain of Histone-lysine N-methyltransferase KMT5C (Q86Y97 whole entry): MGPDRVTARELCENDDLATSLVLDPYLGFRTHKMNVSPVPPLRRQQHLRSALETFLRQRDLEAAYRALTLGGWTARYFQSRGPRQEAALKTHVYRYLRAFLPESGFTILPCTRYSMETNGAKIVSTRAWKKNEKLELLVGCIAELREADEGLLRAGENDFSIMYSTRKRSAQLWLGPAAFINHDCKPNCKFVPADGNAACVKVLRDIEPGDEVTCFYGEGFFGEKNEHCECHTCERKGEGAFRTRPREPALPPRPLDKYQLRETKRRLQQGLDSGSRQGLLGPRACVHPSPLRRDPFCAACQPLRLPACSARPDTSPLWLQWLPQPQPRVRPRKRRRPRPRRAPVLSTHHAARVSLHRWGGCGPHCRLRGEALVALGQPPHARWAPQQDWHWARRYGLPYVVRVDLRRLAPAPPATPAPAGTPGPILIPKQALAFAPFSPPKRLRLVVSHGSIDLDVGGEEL

[4] = target: N-lysine methyltransferase SMYD2 (Homo sapiens, UniProt Q9NRG4); test: Inhibition of SMYD2 (unknown origin) at 10 uM by HMT assay
Chain of N-lysine methyltransferase SMYD2 (Q9NRG4 whole entry): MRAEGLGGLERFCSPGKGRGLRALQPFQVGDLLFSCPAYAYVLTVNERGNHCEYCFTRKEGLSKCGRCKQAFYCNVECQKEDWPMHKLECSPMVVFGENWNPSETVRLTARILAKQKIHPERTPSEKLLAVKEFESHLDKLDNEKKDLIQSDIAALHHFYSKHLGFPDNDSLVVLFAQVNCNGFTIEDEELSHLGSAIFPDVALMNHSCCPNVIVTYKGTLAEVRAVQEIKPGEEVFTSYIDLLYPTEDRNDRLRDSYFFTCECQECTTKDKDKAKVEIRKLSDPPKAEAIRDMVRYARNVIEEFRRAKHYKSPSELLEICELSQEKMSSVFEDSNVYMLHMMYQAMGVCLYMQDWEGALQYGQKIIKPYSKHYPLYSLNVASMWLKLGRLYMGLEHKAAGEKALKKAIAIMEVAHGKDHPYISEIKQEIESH

[5] = target: T1, Histone-lysine N-methyltransferase SUV39H1 (Homo sapiens, UniProt O43463); test: Inhibition of SUV39H1 (unknown origin) by HMT assay
T1 sequence (O43463 whole entry): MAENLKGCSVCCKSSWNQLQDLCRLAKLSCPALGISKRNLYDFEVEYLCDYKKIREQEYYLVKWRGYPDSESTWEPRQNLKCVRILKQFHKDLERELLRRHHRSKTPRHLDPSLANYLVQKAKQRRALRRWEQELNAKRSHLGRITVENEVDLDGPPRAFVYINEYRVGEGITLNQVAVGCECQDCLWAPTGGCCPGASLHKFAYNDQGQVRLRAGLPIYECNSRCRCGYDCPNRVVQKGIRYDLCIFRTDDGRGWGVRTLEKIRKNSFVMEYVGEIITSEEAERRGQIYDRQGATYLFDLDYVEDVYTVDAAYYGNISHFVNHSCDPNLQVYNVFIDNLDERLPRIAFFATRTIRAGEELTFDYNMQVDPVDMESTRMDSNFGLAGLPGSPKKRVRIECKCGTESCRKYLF

[6] = target: Histone-lysine N-methyltransferase SUV39H2 (Homo sapiens, UniProt Q9H5I1); test: Inhibition of SUV39H2 (unknown origin) by HMT assay
Chain of Histone-lysine N-methyltransferase SUV39H2 (Q9H5I1 whole entry): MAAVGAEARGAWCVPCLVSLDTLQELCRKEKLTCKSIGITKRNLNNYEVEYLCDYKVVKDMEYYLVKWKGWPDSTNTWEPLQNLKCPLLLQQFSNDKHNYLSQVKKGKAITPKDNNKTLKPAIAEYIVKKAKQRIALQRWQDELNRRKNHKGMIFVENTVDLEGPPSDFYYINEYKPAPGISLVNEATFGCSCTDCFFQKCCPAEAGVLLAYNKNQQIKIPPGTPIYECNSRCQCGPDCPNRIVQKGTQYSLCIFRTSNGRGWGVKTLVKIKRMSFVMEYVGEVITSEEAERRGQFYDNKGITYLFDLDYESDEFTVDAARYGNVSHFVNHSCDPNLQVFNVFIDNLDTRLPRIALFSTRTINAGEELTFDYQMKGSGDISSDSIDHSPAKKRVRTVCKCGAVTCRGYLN

[7] = target: T2, Histone-lysine N-methyltransferase SETD7 (Homo sapiens) (UniProt Q8WTS6); details: 10 uM
T2 sequence (whole entry): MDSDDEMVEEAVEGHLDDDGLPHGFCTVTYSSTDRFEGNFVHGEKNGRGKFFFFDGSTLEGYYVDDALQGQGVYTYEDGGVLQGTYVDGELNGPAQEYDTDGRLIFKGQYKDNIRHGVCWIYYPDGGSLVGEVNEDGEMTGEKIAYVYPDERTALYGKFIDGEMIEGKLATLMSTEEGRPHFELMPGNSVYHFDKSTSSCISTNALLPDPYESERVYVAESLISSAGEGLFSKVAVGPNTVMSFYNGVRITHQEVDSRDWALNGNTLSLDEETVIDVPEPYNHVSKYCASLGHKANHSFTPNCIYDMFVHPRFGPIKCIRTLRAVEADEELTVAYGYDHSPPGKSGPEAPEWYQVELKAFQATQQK
Description: Inhibition of SETD7 (unknown origin) at 10 uM by HMT assay

[8] = target: Histone-lysine N-methyltransferase EZH2 (Homo sapiens, UniProt O75530+Q09028+Q15022+Q15910, Y641N); test: Inhibition of N-terminally FLAG-tagged EZH2 Y641N mutant in EZH2/SUZ12/EED/RbAp48 complex (unknown origin) expressed in baculovirus infected in SF9 cells assessed as inhibition of methylation of nucleosomes at H3K27 by scintillation counting in presence of [3H]SAM
Chain of Histone-lysine N-methyltransferase EZH2 (Q15910 whole entry Y641N, one chain of several): as the sequence (Q15910 whole entry, looked up) above, with Y641N counted along it

[9] = target: T3, Histone-lysine N-methyltransferase SETD7 (Homo sapiens, UniProt Q8WTS6); test: Inhibition of SETD7 (unknown origin) by HMT assay
T3 sequence (Q8WTS6 whole entry): T2 sequence (whole entry)

[10] = target: T4, Histone-lysine N-methyltransferase EHMT1 (Homo sapiens) (UniProt Q9H9B1); test: Inhibition of EHMT1 (unknown origin) at 10 uM by HMT assay
T4 sequence (whole entry): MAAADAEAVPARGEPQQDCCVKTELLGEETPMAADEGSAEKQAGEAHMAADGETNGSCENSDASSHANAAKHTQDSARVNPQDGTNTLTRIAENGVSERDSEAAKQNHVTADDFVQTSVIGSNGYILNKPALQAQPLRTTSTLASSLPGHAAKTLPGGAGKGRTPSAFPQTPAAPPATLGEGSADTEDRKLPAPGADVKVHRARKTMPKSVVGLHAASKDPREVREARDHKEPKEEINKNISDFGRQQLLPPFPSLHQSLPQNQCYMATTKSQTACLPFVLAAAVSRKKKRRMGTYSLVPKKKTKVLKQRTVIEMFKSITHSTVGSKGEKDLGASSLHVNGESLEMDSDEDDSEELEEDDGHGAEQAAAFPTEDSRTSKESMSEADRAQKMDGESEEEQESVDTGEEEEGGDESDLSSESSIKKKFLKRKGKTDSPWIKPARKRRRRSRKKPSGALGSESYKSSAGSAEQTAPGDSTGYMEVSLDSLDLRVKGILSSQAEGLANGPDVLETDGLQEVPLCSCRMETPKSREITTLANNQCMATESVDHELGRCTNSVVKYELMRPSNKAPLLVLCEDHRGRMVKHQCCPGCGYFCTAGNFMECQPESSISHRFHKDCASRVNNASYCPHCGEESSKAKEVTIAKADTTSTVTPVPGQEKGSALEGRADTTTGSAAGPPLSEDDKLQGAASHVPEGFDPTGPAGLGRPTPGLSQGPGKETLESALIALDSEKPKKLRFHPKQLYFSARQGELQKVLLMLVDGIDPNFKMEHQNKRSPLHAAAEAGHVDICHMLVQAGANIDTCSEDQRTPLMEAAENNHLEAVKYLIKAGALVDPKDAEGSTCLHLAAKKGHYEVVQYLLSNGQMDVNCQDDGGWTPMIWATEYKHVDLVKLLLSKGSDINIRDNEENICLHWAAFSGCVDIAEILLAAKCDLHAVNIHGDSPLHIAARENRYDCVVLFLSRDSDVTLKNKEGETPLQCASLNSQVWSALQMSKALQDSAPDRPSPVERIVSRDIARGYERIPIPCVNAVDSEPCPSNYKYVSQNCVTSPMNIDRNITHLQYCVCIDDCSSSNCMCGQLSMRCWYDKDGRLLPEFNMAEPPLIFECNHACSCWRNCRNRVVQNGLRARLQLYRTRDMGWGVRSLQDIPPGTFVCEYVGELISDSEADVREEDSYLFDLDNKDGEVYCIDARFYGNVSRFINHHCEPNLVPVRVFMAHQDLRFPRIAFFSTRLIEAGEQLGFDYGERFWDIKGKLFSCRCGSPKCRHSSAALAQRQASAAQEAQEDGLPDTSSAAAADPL

[11] = target: Histone-lysine N-methyltransferase SETDB1 (Homo sapiens, UniProt Q15047); test: Inhibition of SETDB1 (unknown origin) by HMT assay
[12] = target: T5, Histone-lysine N-methyltransferase EHMT1 (Homo sapiens, UniProt Q9H9B1); test: Inhibition of EHMT1 (unknown origin) by HMT assay
T5 sequence (Q9H9B1 whole entry): T4 sequence (whole entry)

**Q.** Which results are given for `Nc1ncnc2c1ncn2[C@@H]1O[C@H](CSCC[C@H](N)C(=O)NCc2cc(-c3ccccc3)[nH]n2)[C@@H](O)[C@H]1O`?
**A.** Papp [1]: 1 ×10⁻⁶ cm/s; inhibition [2]: inactive; pIC50 [3]: < 4.00; inhibition [4]: inactive; pIC50 [5]: 5.02; pIC50 [6]: < 4.00; inhibition [7]: inactive; pIC50 [8]: 7.15; pIC50 [9]: < 4.00; inhibition [10]: 24%; pIC50 [11]: < 4.00; pIC50 [12]: < 4.52
